The values below come from patent US20130018033A1, “RAF INHIBITOR COMPOUNDS AND METHODS OF USE THEREOF” (ARRAY BIOPHARMA INC., priority 2009, published 2013).

One experiment deals with T1, V600E full-length B-Raf (Homo sapiens, UniProt P15056, V600E).
T1 construct: 1 μM FSBA-MEK and 20 nM V600E full-length B-Raf; made in house; host or cells: Sf9 insect cells (baculovirus)
Description: B-Raf IC50 assay (Example A). Type of experiment: biochemical. An excerpt: Determining the activity of Raf in the sample is possible by a number of direct and indirect detection methods (US 2004/0082014). Activity of human recombinant B-Raf protein may be assessed in vitro by assay of the incorporation of radio labeled phosphate to recombinant MAP kinase (MEK), a known physiologic substrate of B-Raf, according to US 2004/0127496 and WO 03/022840. The activity/inhibition of V600E full-length B-Raf was estimated by measuring the incorporation of radio labeled phosphate from [γ-^33P]ATP into FSBA-modified wild-type MEK (see Example A).
Activity of human recombinant B-Raf protein may be assessed in vitro by assay of the incorporation of radio labeled phosphate to recombinant MAP kinase (MEK), a known physiologic substrate of B-Raf, according to US 2004/0127496 and WO 03/022840. Catalytically active human recombinant B-Raf protein is obtained by purification from sf9 insect cells infected with a human B-Raf recombinant baculovirus expression vector.
The activity/inhibition of V600E full-length B-Raf was estimated by measuring the incorporation of radio labeled phosphate from [γ-^33P]ATP into FSBA-modified wild-type MEK. The 30-μL assay mixtures contained 25 mM Na Pipes, pH 7.2, 100 mM KCl, 10 mM MgCl2, 5 mM β-glycerophosphate, […], 4 μM ATP, 500 nCi [γ-^33P]ATP, 1 μM FSBA-MEK and 20 nM V600E full-length B-Raf. Incubations were carried out at 22° C. in a Costar 3365 plate (Corning). Prior to the assay, the B-Raf and FSBA-MEK were preincubated together in assay buffer at 1.5×(20 μL of 30 nM and 1.5 μM, respectively) for 15 minutes, and the assay was initiated by the addition of 10 μL of 10 μM ATP. Following the 60-minute incubation, the assay mixtures were quenched by the addition of 100 μL of 25% TCA, the plate was mixed on a rotary shaker for 1 minute, and the product was captured on a Perkin-Elmer GF/B filter plate using a Tomtec Mach III Harvester. After sealing the bottom of the plate, 35 μL of Bio-Safe II (Research Products International) scintillation cocktail were added to each well and the plate was top-sealed and counted in a Topcount NXT (Packard).

Experiment [1] has as its system basal ERK1/2 phosphorylation in Malme-3M cells. The experiment in a line: Cellular ERK 1/2 phosphorylation assay (Example A1). It counts as cell-based. As to conditions: Homo sapiens, 1 hour incubation, pERK normalized to total ERK, read-out: P-ERK Malme3-M IC50. The protocol: Inhibition of basal ERK1/2 phosphorylation was determined by the following in vitro […], which comprises incubating cells with a compound of Formula I for 1 hour and quantifying the fluorescent pERK signal on fixed cells and normalizing to total ERK signal.
Malme-3M cells were obtained from ATCC and grown in RPMI-1640 supplemented with 10% fetal bovine serum. Cells were plated in 96-well plates at 24,000 cells/well and allowed to attach for 16-20 hours at 37° C., 5% CO2. The media was removed, and DMSO-diluted compounds were added in RPMI-1640 at a final concentration of 1% DMSO. The cells were incubated with the compounds for 1 hour at 37° C., 5% CO2. The cells were washed with PBS and fixed in 3.7% formaldehyde in PBS for 15 minutes. This was followed by washing in PBS/0.05% Tween20 and permeabilizing in −20° C. 100% MeOH for 15 minutes. Cells were washed in PBS/0.05% Tween20 then blocked in Odyssey blocking buffer (LI-COR Biosciences) for 1 hour. Antibodies to phosphorylated ERK (1:400, Cell Signaling #9106, monoclonal) and total ERK (1:400, Santa Cruz Biotechnology #sc-94, polyclonal) were added to the cells and incubated 16-20 hours at 4° C. After washing with PBS/0.05% Tween20, the cells were incubated with fluorescently-labeled secondary antibodies (1:1000 goat anti-rabbit IgG-IRDye800, Rockland and 1:500 goat anti-mouse IgG-Alexa Fluor 680, Molecular Probes) for an additional hour. Cells were then washed and analyzed for fluorescence at both wavelengths using the Odyssey Infrared Imaging System (LI-COR Biosciences). Phosphorylated ERK signal was normalized to total ERK signal.

Where [2] appears, read: B-Raf V600E assay of Example A, read-out: IC50.
Setting [3] is: [γ-33P]ATP incorporation into FSBA-MEK, 4 μM ATP, read-out: BRAF V600E IC50.

Where two headings read alike, the source gives them in different places. Bounds are passed on as bounds.

T1 sequence (P15056 whole entry V600E): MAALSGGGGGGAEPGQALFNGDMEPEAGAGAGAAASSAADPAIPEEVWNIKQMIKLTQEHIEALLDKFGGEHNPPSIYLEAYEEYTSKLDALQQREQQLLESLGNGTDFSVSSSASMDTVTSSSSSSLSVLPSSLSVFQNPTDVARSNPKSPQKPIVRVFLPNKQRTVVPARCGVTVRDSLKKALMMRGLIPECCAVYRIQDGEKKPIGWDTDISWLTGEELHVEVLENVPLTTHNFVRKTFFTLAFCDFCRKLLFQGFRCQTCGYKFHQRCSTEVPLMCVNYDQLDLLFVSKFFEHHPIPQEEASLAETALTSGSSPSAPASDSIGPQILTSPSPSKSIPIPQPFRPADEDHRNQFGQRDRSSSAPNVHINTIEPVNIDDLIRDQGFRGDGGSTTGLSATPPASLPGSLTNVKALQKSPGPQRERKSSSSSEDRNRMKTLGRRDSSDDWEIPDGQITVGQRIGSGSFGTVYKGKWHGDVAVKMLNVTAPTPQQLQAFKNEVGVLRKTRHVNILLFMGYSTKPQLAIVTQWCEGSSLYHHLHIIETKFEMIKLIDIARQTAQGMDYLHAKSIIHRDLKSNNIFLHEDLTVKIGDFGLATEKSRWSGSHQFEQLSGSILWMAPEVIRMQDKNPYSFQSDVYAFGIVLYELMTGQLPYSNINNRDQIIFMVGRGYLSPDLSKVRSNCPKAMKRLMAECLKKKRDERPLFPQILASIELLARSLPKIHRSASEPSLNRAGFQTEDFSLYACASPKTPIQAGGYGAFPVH

Regarding `CCCS(=O)(=O)Nc1ccc(F)c(NC(=O)c2cccc3c(N)ncnc23)c1F` [Example 1, 4-Amino-quinazoline-8-carboxylic acid [2,6-difluoro-3-(propane-1-sulfonylamino)-phenyl]-amide], the 50% inhibitory concentration (IC50) (in general, the midpoint of a concentration-inhibition curve) at V600E full-length B-Raf (setting [2]) is below 100 nM; on V600E full-length B-Raf (BRAF V600E IC50 (μM), [γ-33P]ATP incorporation into FSBA-MEK, 4 μM ATP) it was 1.77 nM; in experiment [1], 8.67 nM.
With `CCCS(=O)(=O)Nc1ccc(Cl)c(NC(=O)c2cccc3c(N)ncnc23)c1` [Example 22, 4-Amino-quinazoline-8-carboxylic acid [2-chloro-5-(propane-1-sulfonylamino)-phenyl]-amide], the IC50 at V600E full-length B-Raf (setting [2]) was below 100 nM; at V600E full-length B-Raf (setting [3]), 64.9 nM; in experiment [1], 1110 nM.
Regarding `Nc1ncnc2c(C(=O)Nc3c(F)ccc(NS(=O)(=O)CC4CC4)c3Cl)cccc12` [Example 16, 4-Amino-quinazoline-8-carboxylic acid (2-chloro-3-cyclopropyl-methane-sulfonylamino-6-fluoro-phenyl)-amide], the figures for the IC50 (at V600E full-length B-Raf (setting [2]); on V600E full-length B-Raf (setting [3]); in experiment [1]) were below 100 nM, 2.6 nM and 15.2 nM, respectively.
With `CCCS(=O)(=O)Nc1ccc(C)c(NC(=O)c2cccc3c(N)ncnc23)c1` [Example 21, 4-Amino-quinazoline-8-carboxylic acid [2-methyl-5-(propane-1 sulfonylamino)-phenyl]-amide], the IC50 was below 100 nM on V600E full-length B-Raf (setting [2]), 18.5 nM on V600E full-length B-Raf (setting [3]) and 1320 nM in experiment [1].
Regarding `CCNc1ncnc2c(C(=O)Nc3c(F)c(F)cc(NS(=O)(=O)CCCF)c3F)cccc12` [Example 52, 4-Ethylamino-quinazoline-8-carboxylic acid [2,3,6-trifluoro-5-(3-fluoro-propane-1-sulfonylamino)-phenyl]-amide], the IC50 was below 1000 nM at V600E full-length B-Raf (setting [2]), 290 nM at V600E full-length B-Raf (setting [3]) and 5290 nM in experiment [1].
For the molecule `CCS(=O)(=O)Nc1ccc(Cl)c(NC(=O)c2cccc3c(N)ncnc23)c1F` [Example 18, 4-Amino-quinazoline-8-carboxylic acid (6-chloro-3-ethanesulfonyl-amino-2-fluoro-phenyl)-amide], the IC50 on V600E full-length B-Raf (setting [2]) is below 100 nM; at V600E full-length B-Raf (setting [3]), 1.53 nM; in experiment [1], 18.2 nM.
As for `Nc1ncnc2c(C(=O)Nc3c(F)ccc(NS(=O)(=O)CC4CC4)c3F)cccc12` [Example 13, 4-Amino-quinazoline-8-carboxylic acid (3-cyclopropyl-methane-sulfonylamino-2,6-difluoro-phenyl)-amide], the IC50 at V600E full-length B-Raf (setting [2]) was below 100 nM; at V600E full-length B-Raf (setting [3]) it was 3.8 nM; in experiment [1], 14.9 nM.
Turning to `CCCS(=O)(=O)Nc1ccc(F)c(NC(=O)c2cc(C)cc3c(N)ncnc23)c1Cl` [Example 77, 4-Amino-6-methyl-quinazoline-8-carboxylic acid [2-chloro-6-fluoro-3-(propane-1-sulfonylamino)-phenyl]-amide], the 50% inhibitory concentration (IC50) at V600E full-length B-Raf (setting [2]) was below 100 nM; on V600E full-length B-Raf (setting [3]) it was 0.45 nM; in experiment [1] it was 7.83 nM.
For the molecule `CCCS(=O)(=O)Nc1ccc(Cl)c(NC(=O)c2cccc3cncnc23)c1F` [Example 58, Quinazoline-8-carboxylic acid [6-chloro-2-fluoro-3-(propane-1-sulfonylamino)-phenyl]-amide], the IC50 on V600E full-length B-Raf (setting [2]) was below 100 nM; at V600E full-length B-Raf (setting [3]) it was 17.1 nM; in experiment [1] it was 301 nM.
Taken in the same sequence, the figures for `CC(C)CS(=O)(=O)Nc1ccc(F)c(NC(=O)c2cccc3c(N)ncnc23)c1Cl` [Example 10, 4-Amino-quinazoline-8-carboxylic acid [2-chloro-6-fluoro-3-(2-methyl-propane-1-sulfonylamino)-phenyl]-amide] were below 100 nM, 0.55 nM and 6.73 nM.
For `Nc1ncnc2c(C(=O)Nc3c(Cl)ccc(NS(=O)(=O)CCCF)c3F)cccc12` [Example 25, 4-Amino-quinazoline-8-carboxylic acid [6-chloro-2-fluoro-3-(3-fluoro-propane-1-sulfonylamino)-phenyl]-amide], the IC50 at V600E full-length B-Raf (setting [2]) is below 100 nM; at V600E full-length B-Raf (setting [3]) it was 0.09 nM; in experiment [1], 2.21 nM.
